Assays:
Format in all cases: biochemical
KDM4E [1] = target: T1, KDM4E (Homo sapiens, UniProt B2RXH2); test: KDM, RDM and hydroxylation (+16 Da) activities of KDM4E with histone peptide variants by MS; conditions: MALDI–TOF or LC–MS, n = 3
T1 construct: KDM4E1–337; made in house; host or cells: E. coli
T1 sequence (B2RXH2 1-337): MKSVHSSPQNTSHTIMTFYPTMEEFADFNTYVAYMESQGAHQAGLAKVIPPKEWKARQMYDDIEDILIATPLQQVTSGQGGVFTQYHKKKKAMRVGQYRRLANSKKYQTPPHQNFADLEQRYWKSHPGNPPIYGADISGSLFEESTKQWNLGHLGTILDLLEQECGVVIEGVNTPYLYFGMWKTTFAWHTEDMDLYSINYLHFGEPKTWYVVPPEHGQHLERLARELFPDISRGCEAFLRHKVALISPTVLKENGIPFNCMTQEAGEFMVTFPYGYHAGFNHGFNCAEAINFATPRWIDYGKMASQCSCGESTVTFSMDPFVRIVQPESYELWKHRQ
Protocol: Fig. 3 KDM4E-catalysed hydroxylation occurs at Arg-20 on histone H2a peptide. a LC–MS/MS analysis of H2a(1–20) after KDM4E treatment. Two potential hydroxylation sites, R17 and R20, were identified, with the latter more likely (Supplementary Fig. 9). b Peptide variant studies support Arg-20 hydroxylation; specific activities: H2a(1–20), 0.65 nmol min^−1 mg^−1 SD: 0.073; H2a(1–20) with a C-terminal carboxylic acid (indicated with an -OH), no activity; H2a(1–20)R20A, no activity; H2a(1–20)R20K*, no activity; H2a(1–20)R20Kme3*, 0.44 nmol min^−1 mg^−1 SD: 0.04; H2a(1–20)R3me2a*, 0.51 nmol min^−1 mg^−1 SD: 0.05; H2a(1–20)R3A, 0.37 nmol min^−1 mg^−1 SD: 0.002; H2a(1–21)*, 0.65 nmol min^−1 mg^−1 SD 0.02; H2a(1–25, 0.35 nmol min^−1 mg^−1 SD: 0.044; and H2a(10–29), 0.02 nmol min^−1 mg^−1 SD: 0.013. Measurements employed MALDI–TOF MS except when labelled with*, which employed LC–MS (Supplementary Fig. 10 for representative MS data). n = 3 independent assays. c KDM, RDM and hydroxylation (+16 Da) activities of KDM4E are sequence and context dependent. Histone peptides (H2a, H3, H4) and variants (wild type residue in red, replaced with either K, Kme3, R or Rme2a) were incubated with KDM4E and analysed on MALDI–TOF MS. KDM, RDM and hydroxylation (+16 Da) were detected in some but not all peptides (Supplementary Fig. 10 for representative MS data). […]

KDM4E [2] = target: T1, KDM4E; test: Specific hydroxylation activity of KDM4E; conditions: for extent of hydroxylation (in words): KDM4E, relative to H2a(1–20)
Protocol: Fig. 3 KDM4E-catalysed hydroxylation occurs at Arg-20 on histone H2a peptide. a LC–MS/MS analysis of H2a(1–20) after KDM4E treatment. Two potential hydroxylation sites, R17 and R20, were identified, with the latter more likely (Supplementary Fig. 9). b Peptide variant studies support Arg-20 hydroxylation; specific activities: H2a(1–20), 0.65 nmol min^−1 mg^−1 SD: 0.073; H2a(1–20) with a C-terminal carboxylic acid (indicated with an -OH), no activity; H2a(1–20)R20A, no activity; H2a(1–20)R20K*, no activity; H2a(1–20)R20Kme3*, 0.44 nmol min^−1 mg^−1 SD: 0.04; H2a(1–20)R3me2a*, 0.51 nmol min^−1 mg^−1 SD: 0.05; H2a(1–20)R3A, 0.37 nmol min^−1 mg^−1 SD: 0.002; H2a(1–21)*, 0.65 nmol min^−1 mg^−1 SD 0.02; H2a(1–25, 0.35 nmol min^−1 mg^−1 SD: 0.044; and H2a(10–29), 0.02 nmol min^−1 mg^−1 SD: 0.013. Measurements employed MALDI–TOF MS except when labelled with*, which employed LC–MS (Supplementary Fig. 10 for representative MS data). n = 3 independent assays. c KDM, RDM and hydroxylation (+16 Da) activities of KDM4E are sequence and context dependent. Histone peptides (H2a, H3, H4) and variants (wild type residue in red, replaced with either K, Kme3, R or Rme2a) were incubated with KDM4E and analysed on MALDI–TOF MS. KDM, RDM and hydroxylation (+16 Da) were detected in some but not all peptides (Supplementary Fig. 10 for representative MS data). (−) No mass changes observed. n = 3 independent assays. See Supplementary Table 6 for conditions. TEXT PRINTED IN THE PICTURE: (c) H2a: K/R replacement K: -; K/R replacement Kme3: KDM/ROH; K/R replacement R: ROH; K/R replacement Rme2a: KDM/ROH | (c) H3: K/R replacement K: -; K/R replacement Kme3: KDM; K/R replacement R: -; K/R replacement Rme2a: RDM | (c) H4: K/R replacement K: -; K/R replacement Kme3: -; K/R replacement R: -; K/R replacement Rme2a: RDM DOUBTS OF THE COPYIST ABOUT THIS PICTURE: Panel c: the table cells are qualitative activity classes (KDM, RDM, ROH, -) for peptide variants, not numbers; it is uncertain whether they count as results. / Panel b: the bar chart prints no values beside the bars, so nothing was taken from it.
(§1) MS-based screening assays with peptides and calf thymus histones were as reported; see Supplementary Table 6 for conditions. Time course assays were based on reported procedures. In brief, equal volumes of the enzyme and substrate solutions were combined to initiate the reaction; 10 µL of 2% (v/v) formic acid (HCOOH) in ddH2O or 100% methanol was added to 10 µL of the reaction mixture to quench reactions at different time points. Unless otherwise stated, time course assays were carried out in triplicate. In some cases, LC–MS was used instead of MALDI-TOF MS to avoid a MALDI matrix induced artefact with the hydroxylated product (Supplementary Fig. 16).
Data collected from time course assay(s) were used to plot the % conversion vs time (min) using GraphPad Prism5 version 5.04; the resultant slopes were used to fit a line with linear regression to the first-order region of the reaction. The resultant gradient was then converted from % product formation min^−1 to amount of peptide converted (demethylation and / or hydroxylation) in µM.
Supplementary Figure 17 Comparison of specific hydroxylation activities of KD M4E with H2a(1–20) when anal ysed by MALDI-TO F MS or LC–MS. Comparison of specific activities for KDM4E catalysed hydroxylation of H2a(1–20) when analysed with MALDI-TOF MS or LC–MS ([…] SD: 0.073 and 0.65 nmol·min−1·mg− 1 SD: 0.01 respectively). n = 3 (independent assays). See Supplementary Table 6 for assay […]
(also on this page, place not known: KDM4E H2a(1 –20) analysed MALDI -TOF LC –MS nmol·min −1·mg−1 nmol·min−1·mg−1 0.8specific activity (nmol·min-1·mg-1)) […]
[ E nz ym e] [Peptide] [2OG] [Ascorbate] [(NH4)2F e(S O4)2] [TCEP] Buffer pH7.5 Enzyme Cognate substrate (mM) (mM) (mM) (mM) (mM) (mM) [HE PE S]
Supplementary Table 6 Summary of MS assay conditions for substrate screening. These conditions […]

KDM4E [3] = target: T1, KDM4E; test: MALDI–TOF MS demethylation/+16 Da assay, KDM4E; conditions: 60 min, 2 µM KDM4E, 10 µM peptide
From the text: Fig. 2 Histone H2a fragments are KDM5 and KDM4 substrates. […] See Supplementary Table 6 and Supplementary Fig. 2 for assay conditions and quantification, respectively. […] 0-minute MS spectrum in black, 60/90-minute spectrum in red.
as §1, with “16). […]” for “16).”
Supplementary Figure 2 Histone H2a peptide fragments are substrates of KDM4s and KDM5s.
2 for representative corresponding MALDI–TOF MS traces. Bar graphs comparing % product format ion (+16 Da and demethylation) of H2a(1–20)R3me2a by (a) K DM5 A–D (after 90 minutes) and (b) KDM4A–E ( a ft er 60 minutes), analysed by MALDI– TOF MS. n = (a) 2, (b) 3 (independent assays). See Supplementary Table 6 for assay condit ions. See Figure S13 A 1 for a positive control. […]

[4] = MALDI–TOF MS, mean of n = 3, SD: H2a(1–20) 0.073, R3A 0.002, H2a(1–25) 0.044, H2a(10–29) 0.013

| Substance | +16 Da mass shift (hydroxylation) (KDM4E [1]) | specific activity (hydroxylation) (KDM4E [2]; Figure 3b, MALDI–TOF MS, replicate 1) [nmol/min/mg] | specific activity (hydroxylation) (KDM4E [2]; Figure 3b, MALDI–TOF MS, replicate 2) [nmol/min/mg] | extent of hydroxylation (in words) (KDM4E [2]) | specific activity (hydroxylation) (KDM4E [2]; [4]) | mass shift (KDM4E [1]) | specific activity (hydroxylation) (KDM4E [2]; Figure 3b, LC–MS (*), replicate 1) [nmol/min/mg] | specific activity (hydroxylation) (KDM4E [2]; Figure 3b, LC–MS (*), replicate 2) [nmol/min/mg] | specific activity (hydroxylation) (KDM4E [2]; Figure 3b, LC–MS (*), replicate 3) [nmol/min/mg] | +16 Da mass shift (KDM4E [3]) |
| --- | --- | --- | --- | --- | --- | --- | --- | --- | --- | --- |
| Ac - SGR GKQ GGKAR AKAKT R SSR AGL Q F [H2a(1–25)] | +16 Da mass shift | 0.3027 | 0.3905 | lower | 0.35 nmol/min/mg | – | – | – | – | – |
| Ac - SGR GKQ GGKAR AKAKT R SSR - O H [H2a(1–20)-OH, H2a(1–20) with a C-terminal carboxylic acid] | – | – | – | no activity was observed | no activity | no mass shift | 0 | 0 | 0 | – |
| H2a(1–20)R3me1: H2a(1–20) mono-methylated at Arg-3 | – | – | – | – | – | – | – | – | – | A +16 Da mass shift occurs |

From paper PMC11603075 (Communications Biology, 2024)
